PubChem BioAssay (NCI)
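Protocol summary: plate cells (96-well), add compound at 5 concentrations, incubate 48 h, interpolate endpoints linearly. The concentration for 50% growth inhibition is given as GI50. TGI marks complete inhibition of growth.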

Columns and labels:
Assay in all cases: growth of human tumour cells (NCI), 48 h
MOLT-4 leukemia = test system: MOLT-4 leukemia
SK-MEL-5 melanoma = test system: SK-MEL-5 melanoma
HCC-2998 colon = test system: HCC-2998 colon
OVCAR-3 ovarian = test system: OVCAR-3 ovarian
UACC-62 melanoma = test system: UACC-62 melanoma
T-47D breast = test system: T-47D breast
SF-539 CNS = test system: SF-539 CNS
M14 melanoma = test system: M14 melanoma
786-0 renal = test system: 786-0 renal
K-562 leukemia = test system: K-562 leukemia
OVCAR-4 ovarian = test system: OVCAR-4 ovarian
SF-268 CNS = test system: SF-268 CNS
SK-MEL-2 melanoma = test system: SK-MEL-2 melanoma
NCI-H522 lung = test system: NCI-H522 lung
PC-3 prostate = test system: PC-3 prostate
UO-31 renal = test system: UO-31 renal
NCI/ADR-RES ovarian = test system: NCI/ADR-RES ovarian
SK-MEL-28 melanoma = test system: SK-MEL-28 melanoma
U251 CNS = test system: U251 CNS
NCI-H460 lung = test system: NCI-H460 lung
MDA-MB-231 breast = test system: MDA-MB-231 breast
SN12C renal = test system: SN12C renal
EKVX NSCLC = test system: EKVX NSCLC
IGROV1 ovarian = test system: IGROV1 ovarian
DU-145 prostate = test system: DU-145 prostate
MCF7 breast = test system: MCF7 breast
SK-OV-3 ovarian = test system: SK-OV-3 ovarian
HL-60(TB) leukemia = test system: HL-60(TB) leukemia
A549 NSCLC = test system: A549 NSCLC

Clc1ccccc1-c1nc2ccccc2[nH]1
GI50 (MOLT-4 leukemia): > 100 µM
TGI (MOLT-4 leukemia): > 100 µM
GI50 (SK-MEL-5 melanoma): > 100 µM
TGI (SK-MEL-5 melanoma): > 100 µM
GI50 (HCC-2998 colon): > 100 µM
TGI (HCC-2998 colon): > 100 µM
GI50 (OVCAR-3 ovarian): > 100 µM
TGI (OVCAR-3 ovarian): > 100 µM
GI50 (UACC-62 melanoma): > 100 µM
TGI (UACC-62 melanoma): > 100 µM
GI50 (T-47D breast): > 100 µM
TGI (T-47D breast): > 100 µM
GI50 (SF-539 CNS): > 100 µM
TGI (SF-539 CNS): > 100 µM
GI50 (M14 melanoma): > 100 µM
TGI (M14 melanoma): > 100 µM
GI50 (786-0 renal): > 100 µM
TGI (786-0 renal): > 100 µM
GI50 (K-562 leukemia): 80.2 µM
TGI (K-562 leukemia): > 100 µM
GI50 (OVCAR-4 ovarian): > 100 µM
TGI (OVCAR-4 ovarian): > 100 µM
GI50 (SF-268 CNS): > 100 µM
TGI (SF-268 CNS): > 100 µM
GI50 (SK-MEL-2 melanoma): > 100 µM
TGI (SK-MEL-2 melanoma): > 100 µM
GI50 (NCI-H522 lung): > 100 µM
TGI (NCI-H522 lung): > 100 µM
GI50 (PC-3 prostate): > 100 µM
TGI (PC-3 prostate): > 100 µM
GI50 (UO-31 renal): 90.8 µM
TGI (UO-31 renal): > 100 µM
GI50 (NCI/ADR-RES ovarian): > 100 µM
TGI (NCI/ADR-RES ovarian): > 100 µM
GI50 (SK-MEL-28 melanoma): > 100 µM
TGI (SK-MEL-28 melanoma): > 100 µM
GI50 (U251 CNS): > 100 µM
TGI (U251 CNS): > 100 µM
GI50 (NCI-H460 lung): > 100 µM
TGI (NCI-H460 lung): > 100 µM
GI50 (MDA-MB-231 breast): > 100 µM
TGI (MDA-MB-231 breast): > 100 µM
GI50 (SN12C renal): > 100 µM
TGI (SN12C renal): > 100 µM
GI50 (EKVX NSCLC): > 100 µM
TGI (EKVX NSCLC): > 100 µM
GI50 (IGROV1 ovarian): 91.7 µM
TGI (IGROV1 ovarian): > 100 µM
GI50 (DU-145 prostate): > 100 µM
TGI (DU-145 prostate): > 100 µM
GI50 (MCF7 breast): > 100 µM
TGI (MCF7 breast): > 100 µM
GI50 (SK-OV-3 ovarian): > 100 µM
TGI (SK-OV-3 ovarian): > 100 µM
GI50 (HL-60(TB) leukemia): > 100 µM
TGI (HL-60(TB) leukemia): > 100 µM
GI50 (A549 NSCLC): > 100 µM
TGI (A549 NSCLC): > 100 µM
